Results published in patent EP4603105A1, “PHARMACEUTICAL COMPOSITION CONTAINING CYCLIC COMPOUND HAVING SELECTIVE KRAS INHIBITORY EFFECT AGAINST HRAS AND NRAS” (CHUGAI SEIYAKU KABUSHIKI KAISHA, priority 2022, dated 2024).
*1 amine or outer side, *2 acyl side, *3 side chain or, on linkers, in order; H or OH if unused. Where a SMILES comes first, the peptide text is derived from it. Bridges are numbered along the chain shown (N, C = ends). [ ]: non-standard residue; d: D form. The star is where a group is joined. hPhe(3,5-F2-4-CF3) = N[C@@H](CCc1cc(F)c(C(F)(F)F)c(F)c1)C(=O)O; NPrPhe(4-CF3) = CCCN[C@@H](Cc1ccc(C(F)(F)F)cc1)C(=O)O; NMeAbu(4,4,4-F3) = CN[C@@H](CC(F)(F)F)C(=O)O; NMeGly(cPent) = CN[C@H](C(=O)O)C1CCCC1; Ac4c(3,3-F2) = NC1(C(=O)O)CC(F)(F)C1; X7 = C[C@@](N[*:1])(C(=O)[*:2])C1CC1; αMeCha = C[C@](N)(CC1CCCCC1)C(=O)O; Nva(3-Et) = CCC(CC)[C@H](N)C(=O)O; X3 = CCC[C@](C)(N[*:1])C(=O)[*:2]; NMeD = CN[C@@H](CC(=O)O)C(=O)O; Ac4c(3-oxa) = NC1(C(=O)O)COC1; NMeL = CN[C@@H](CC(C)C)C(=O)O; αMeL = CC(C)C[C@](C)(N)C(=O)O; αMeV = CC(C)[C@](C)(N)C(=O)O; αMeS = C[C@](N)(CO)C(=O)O; Morpholide = C1CN(*)CCO1; Ac5c = NC1(C(=O)O)CCCC1; Aze = O=C(O)[C@@H]1CCN1; Sar = CNCC(=O)O; tBu = CC(C)(C)*; Allyl = C=CC*

Columns and labels:
[1] = biological target: GDP-bound NRAS wild-type protein (Homo sapiens, UniProt P01111); test: Binding to NRAS by surface plasmon resonance (SPR), KD and KD ratio to KRAS; conditions: ratio of KD for GDP-bound NRAS wild-type protein to KD for KRAS
Chain of GDP-bound NRAS wild-type protein (P01111 whole entry): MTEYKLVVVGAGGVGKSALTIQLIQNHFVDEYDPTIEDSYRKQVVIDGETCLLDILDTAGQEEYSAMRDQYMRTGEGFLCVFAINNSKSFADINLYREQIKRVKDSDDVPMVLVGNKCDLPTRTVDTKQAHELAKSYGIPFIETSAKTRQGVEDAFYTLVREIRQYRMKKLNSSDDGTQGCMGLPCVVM
Procedure, shortened: (§1)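 GDP-bound biotin-Avi RAS captured at ~100–300 RU, 30°C, pH 7.4 HBS containing 10 µM GDP, 10 mM MgCl2, 1 mM DTT, 0.01% Tween 20 and 4% DMSO. KD by 1:1 fitting.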

HRAS wild-type protein = HRAS wild-type protein (Homo sapiens, UniProt P01112); test: Binding to HRAS by surface plasmon resonance (SPR), KD and KD ratio to KRAS; conditions: ratio of KD for HRAS wild-type protein to KD for KRAS
Chain of HRAS wild-type protein (P01112 whole entry): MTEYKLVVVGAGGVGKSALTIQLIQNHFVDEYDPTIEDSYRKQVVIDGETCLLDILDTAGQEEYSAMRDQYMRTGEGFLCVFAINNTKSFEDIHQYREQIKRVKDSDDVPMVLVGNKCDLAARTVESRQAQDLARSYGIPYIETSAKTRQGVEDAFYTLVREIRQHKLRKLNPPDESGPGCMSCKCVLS
Procedure, shortened: as §1

[2] = system: human lung cancer strain NCI-H441; assay type: cell-based
Procedure, shortened: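 Readout: […] after the ATP-based reagent. Compound: serial dilutions in dimethyl sulfoxide.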

| Structure (SMILES) | NRAS /KRAS [1] | HRAS /KRAS (HRAS wild-type protein) | IC50 [2] [nM] |
| --- | --- | --- | --- |
| CCCN1C(=O)[C@@H]2CCN2C(=O)CN(C)C(=O)[C@H]([C@@H](C)CC)NC(=O)[C@H](CC(C)C)N(C)C(=O)C[C@@H](C(=O)N2CCOCC2)N(C)C(=O)[C@H](C2CCCC2)N(C)C(=O)[C@](C)(C2CC2)NC(=O)[C@@H]2CCCN2C(=O)[C@H](CCc2cc(F)c(C(F)(F)F)c(F)c2)NC(=O)CN(C)C(=O)[C@@H]1Cc1ccc(C(F)(F)F)cc1 [PP0791] ([NMeL]I[Sar][Aze][NPrPhe(4-CF3)][Sar][hPhe(3,5-F2-4-CF3)]P[X7][NMeGly(cPent)][NMeD]-Morpholide; lactam N-11) | C (A compound having a KD ratio of 0.1 or more and less than 3 is denoted as C) | B (a compound having 3 or more and less than 10 is denoted as B) | 86 |
| CCCN1C(=O)[C@@H]2CCN2C(=O)CN(C)C(=O)[C@H]([C@@H](C)CC)NC(=O)[C@H](CC(C)C)N(C)C(=O)C[C@@H](C(=O)N2CCOCC2)N(C)C(=O)[C@H](C2CCCC2)N(C)C(=O)[C@](C)(C(C)C)NC(=O)[C@@H]2CCCN2C(=O)[C@H](CCc2cc(F)c(C(F)(F)F)c(F)c2)NC(=O)CN(C)C(=O)[C@@H]1Cc1ccc(C(F)(F)F)cc1 [PP0792] ([NMeL]I[Sar][Aze][NPrPhe(4-CF3)][Sar][hPhe(3,5-F2-4-CF3)]P[αMeV][NMeGly(cPent)][NMeD]-Morpholide; lactam N-11) | C (A compound having a KD ratio of 0.1 or more and less than 3 is denoted as C) | B (a compound having 3 or more and less than 10 is denoted as B) | 112 |
| CCCN1C(=O)[C@@H]2CCN2C(=O)CN(C)C(=O)[C@H]([C@@H](C)CC)NC(=O)[C@H](CC(C)C)N(C)C(=O)C[C@@H](C(=O)N2CCOCC2)N(C)C(=O)[C@H](C2CCCC2)N(C)C(=O)[C@](C)(CCC)NC(=O)[C@@H]2CCCN2C(=O)[C@H](CCc2cc(F)c(C(F)(F)F)c(F)c2)NC(=O)CN(C)C(=O)[C@@H]1Cc1ccc(C(F)(F)F)cc1 [PP0794] ([NMeL]I[Sar][Aze][NPrPhe(4-CF3)][Sar][hPhe(3,5-F2-4-CF3)]P[X3][NMeGly(cPent)][NMeD]-Morpholide; lactam N-11) | C (A compound having a KD ratio of 0.1 or more and less than 3 is denoted as C) | B (a compound having 3 or more and less than 10 is denoted as B) | 122 |
| CCCN1C(=O)[C@@H]2CCN2C(=O)CN(C)C(=O)[C@H]([C@@H](C)CC)NC(=O)[C@H](CC(C)C)N(C)C(=O)C[C@@H](C(=O)N2CCOCC2)N(C)C(=O)[C@H](C2CCCC2)N(C)C(=O)[C@](C)(CC(C)C)NC(=O)[C@@H]2CCCN2C(=O)[C@H](CCc2cc(F)c(C(F)(F)F)c(F)c2)NC(=O)CN(C)C(=O)[C@@H]1Cc1ccc(C(F)(F)F)cc1 [PP0795] ([NMeL]I[Sar][Aze][NPrPhe(4-CF3)][Sar][hPhe(3,5-F2-4-CF3)]P[αMeL][NMeGly(cPent)][NMeD]-Morpholide; lactam N-11) | C (A compound having a KD ratio of 0.1 or more and less than 3 is denoted as C) | B (a compound having 3 or more and less than 10 is denoted as B) | 356 |
| CCCN1C(=O)[C@@H]2CCN2C(=O)CN(C)C(=O)[C@H]([C@@H](C)CC)NC(=O)[C@H](CC(C)C)N(C)C(=O)C[C@@H](C(=O)N2CCOCC2)N(C)C(=O)[C@H](C2CCCC2)N(C)C(=O)[C@](C)(CC2CCCCC2)NC(=O)[C@@H]2CCCN2C(=O)[C@H](CCc2cc(F)c(C(F)(F)F)c(F)c2)NC(=O)CN(C)C(=O)[C@@H]1Cc1ccc(C(F)(F)F)cc1 [PP0796] ([NMeL]I[Sar][Aze][NPrPhe(4-CF3)][Sar][hPhe(3,5-F2-4-CF3)]P[αMeCha][NMeGly(cPent)][NMeD]-Morpholide; lactam N-11) | C (A compound having a KD ratio of 0.1 or more and less than 3 is denoted as C) | B (a compound having 3 or more and less than 10 is denoted as B) | 438 |
| CCCN1C(=O)[C@@H]2CCN2C(=O)CN(C)C(=O)[C@H]([C@@H](C)CC)NC(=O)[C@H](CC(C)C)N(C)C(=O)C[C@@H](C(=O)N2CCOCC2)N(C)C(=O)[C@H](C2CCCC2)N(C)C(=O)[C@](C)(COC)NC(=O)[C@@H]2CCCN2C(=O)[C@H](CCc2cc(F)c(C(F)(F)F)c(F)c2)NC(=O)CN(C)C(=O)[C@@H]1Cc1ccc(C(F)(F)F)cc1 [PP0798] ([NMeL]I[Sar][Aze][NPrPhe(4-CF3)][Sar][hPhe(3,5-F2-4-CF3)]P[αMeS](Me)[NMeGly(cPent)][NMeD]-Morpholide; lactam N-11) | C (A compound having a KD ratio of 0.1 or more and less than 3 is denoted as C) | B (a compound having 3 or more and less than 10 is denoted as B) | 61.5 |
| C=CCOC[C@]1(C)NC(=O)[C@@H]2CCCN2C(=O)[C@H](CCc2cc(F)c(C(F)(F)F)c(F)c2)NC(=O)CN(C)C(=O)[C@H](Cc2ccc(C(F)(F)F)cc2)N(CCC)C(=O)[C@@H]2CCN2C(=O)CN(C)C(=O)[C@H]([C@@H](C)CC)NC(=O)[C@H](CC(C)C)N(C)C(=O)C[C@@H](C(=O)N2CCOCC2)N(C)C(=O)[C@H](C2CCCC2)N(C)C1=O [PP0799] ([NMeL]I[Sar][Aze][NPrPhe(4-CF3)][Sar][hPhe(3,5-F2-4-CF3)]P[αMeS](Allyl)[NMeGly(cPent)][NMeD]-Morpholide; lactam N-11) | C (A compound having a KD ratio of 0.1 or more and less than 3 is denoted as C) | B (a compound having 3 or more and less than 10 is denoted as B) | 36.3 |
| CCCN1C(=O)[C@@H]2CCN2C(=O)CN(C)C(=O)[C@H]([C@@H](C)CC)NC(=O)[C@H](CC(C)C)N(C)C(=O)C[C@@H](C(=O)N2CCOCC2)N(C)C(=O)[C@H](C2CCCC2)N(C)C(=O)[C@](C)(COC(C)(C)C)NC(=O)[C@@H]2CCCN2C(=O)[C@H](CCc2cc(F)c(C(F)(F)F)c(F)c2)NC(=O)CN(C)C(=O)[C@@H]1Cc1ccc(C(F)(F)F)cc1 [PP0800] ([NMeL]I[Sar][Aze][NPrPhe(4-CF3)][Sar][hPhe(3,5-F2-4-CF3)]P[αMeS](tBu)[NMeGly(cPent)][NMeD]-Morpholide; lactam N-11) | C (A compound having a KD ratio of 0.1 or more and less than 3 is denoted as C) | B (a compound having 3 or more and less than 10 is denoted as B) | 186 |
| CCCN1C(=O)[C@@H]2CCN2C(=O)CN(C)C(=O)[C@H]([C@@H](C)CC)NC(=O)[C@H](CC(C)C)N(C)C(=O)C[C@@H](C(=O)N2CCOCC2)N(C)C(=O)[C@H](C2CCCC2)N(C)C(=O)C2(COC2)NC(=O)[C@@H]2CCCN2C(=O)[C@H](CCc2cc(F)c(C(F)(F)F)c(F)c2)NC(=O)CN(C)C(=O)[C@@H]1Cc1ccc(C(F)(F)F)cc1 [PP0801] ([NMeL]I[Sar][Aze][NPrPhe(4-CF3)][Sar][hPhe(3,5-F2-4-CF3)]P[Ac4c(3-oxa)][NMeGly(cPent)][NMeD]-Morpholide; lactam N-11) | C (A compound having a KD ratio of 0.1 or more and less than 3 is denoted as C) | B (a compound having 3 or more and less than 10 is denoted as B) | 28.7 |
| CCCN1C(=O)[C@@H]2CCN2C(=O)CN(C)C(=O)[C@H]([C@@H](C)CC)NC(=O)[C@H](CC(C)C)N(C)C(=O)C[C@@H](C(=O)N2CCOCC2)N(C)C(=O)[C@H](C2CCCC2)N(C)C(=O)C2(CC(F)(F)C2)NC(=O)[C@@H]2CCCN2C(=O)[C@H](CCc2cc(F)c(C(F)(F)F)c(F)c2)NC(=O)CN(C)C(=O)[C@@H]1Cc1ccc(C(F)(F)F)cc1 [PP0802] ([NMeL]I[Sar][Aze][NPrPhe(4-CF3)][Sar][hPhe(3,5-F2-4-CF3)]P[Ac4c(3,3-F2)][NMeGly(cPent)][NMeD]-Morpholide; lactam N-11) | C (A compound having a KD ratio of 0.1 or more and less than 3 is denoted as C) | B (a compound having 3 or more and less than 10 is denoted as B) | 6.5 |
| CCCN1C(=O)[C@@H]2CCN2C(=O)CN(C)C(=O)[C@H]([C@@H](C)CC)NC(=O)[C@H](CC(C)C)N(C)C(=O)C[C@@H](C(=O)N2CCOCC2)N(C)C(=O)[C@H](CC(F)(F)F)N(C)C(=O)C2(CCCC2)NC(=O)[C@@H]2CCCN2C(=O)[C@H](CCc2cc(F)c(C(F)(F)F)c(F)c2)NC(=O)CN(C)C(=O)[C@@H]1Cc1ccc(C(F)(F)F)cc1 [PP0803] ([NMeL]I[Sar][Aze][NPrPhe(4-CF3)][Sar][hPhe(3,5-F2-4-CF3)]P[Ac5c][NMeAbu(4,4,4-F3)][NMeD]-Morpholide; lactam N-11) | C (A compound having a KD ratio of 0.1 or more and less than 3 is denoted as C) | B (a compound having 3 or more and less than 10 is denoted as B) | 52.5 |
| CCCN1C(=O)[C@@H]2CCN2C(=O)CN(C)C(=O)[C@H](C(CC)CC)NC(=O)[C@H](CC(C)C)N(C)C(=O)C[C@@H](C(=O)N2CCOCC2)N(C)C(=O)[C@H](C2CCCC2)N(C)C(=O)C2(CCCC2)NC(=O)[C@@H]2CCCN2C(=O)[C@H](CCc2cc(F)c(C(F)(F)F)c(F)c2)NC(=O)CN(C)C(=O)[C@@H]1Cc1ccc(C(F)(F)F)cc1 [PP0804] ([NMeL][Nva(3-Et)][Sar][Aze][NPrPhe(4-CF3)][Sar][hPhe(3,5-F2-4-CF3)]P[Ac5c][NMeGly(cPent)][NMeD]-Morpholide; lactam N-11) | C (A compound having a KD ratio of 0.1 or more and less than 3 is denoted as C) | B (a compound having 3 or more and less than 10 is denoted as B) | 40.9 |
